Assay [1] relates to β-receptor (heart rate response to isoproterenol). Nature of the assay: Duration and potency of beta-blocking action in vivo (3-hour infusion, isoproterenol challenge, pentobarbital-anesthetized dogs). Also on record: species or system dog. The protocol: The duration of β-blockage was determined in vivo using pentobarbital-anesthetized dogs instrumented for measurement of heart rate using a Beckman cardiotachometer triggered electronically by a phasic aortic blood pressure signal. Both vagus nerves were severed in the cervical region and the animals were mechanically ventilated. The experimental design used employed a 3-hour infusion of test compound. Bolus doses of isoproterenol (0.5 μg/kg) were used to assess the degree of β-blockage and recovery from β-blockage after […] of the infusion. The doses were spaced at 10-minute intervals and were given before, during and following the infusion of test compounds. The infusion rate was adjusted so that at the end of the 3-hour infusion period the degree of isoproterenol inhibition averaged about 50% of control. Following termination of blocker infusion, percent recovery from β-blockade was computed and the time associated with 80% recovery estimated.

The target of assay [2] is T1, β-receptor (guinea pig right atria) (Cavia porcellus, UniProt H0W3H1).
T1 construct: from tissue; host or cells: guinea pig right atria
Nature of the assay: Beta-blocking activity in vitro, guinea pig right atria (antagonism of isoproterenol-induced rate response). Type of assay: cell-based. The following applies: 60-minute incubation, 37° C, Furchgott method; for Kb: read-out: pA2 Atria (converted). How it is done:
Several of the compounds of the present invention were tested for β-blocking activity in vitro using guinea pig right atria and guinea pig tracheal strips mounted in a tissue bath containing oxygenated (95% 02 -5% CO2) Krebs physiological salt solution at 37° C. Each tissue was suspended between a fixed glass rod and a Statham Universal Transducer connected to a Beckman recorder. Atria were allowed to beat spontaneously under a loading tension of approximately 0.5 gm. Intrinsic depressant or stimulant activity was determined for each compound by progressively increasing concentrations in the tissue baths at 60-minute intervals. Tissues were not washed between increments. The maximum concentration showing little or no cardiodepressant activity was chosen for blockade experiments. Changes in rate in response to isoproterenol, a standard β-receptor agonist, were measured in the absence and presence of test compounds. Spiral strips of guinea pig trachea were suspended under 5 gm resting tension and incubated with phentolamine, tropolone and cocaine. Active tension was generated by addition of carbachol (3.0×10^-7 M) and decreases in tension in response to isoproterenol were quantitated. Cumulative concentration-response curves were produced with isoproterenol both before and after 60-minute incubation of test compounds with atria and trachea. Compounds with β-blocking activity shifted concentration-response curves to the right. The blocking potency of test compounds was estimated by computing pA2 values (--log K8) by the method of Furchgott, the Pharmacological Differentiation of Adrenergic Receptors, Ann. N.Y. Acad. Sci., 139:553-570 (1967). […] The degree of cardioselectivity was estimated from the ratio, Kβ trachea/Kβ atria (10^(pA 2^atria-pA 2^trachea)). A ratio greater than one indicates cardioselectivity. Test drugs were dissolved in distilled water and added to the bath (30 mL) in a volume of 10 or 100 μL. All of the test compounds are active β-blockers.

T1 sequence (H0W3H1 1-470): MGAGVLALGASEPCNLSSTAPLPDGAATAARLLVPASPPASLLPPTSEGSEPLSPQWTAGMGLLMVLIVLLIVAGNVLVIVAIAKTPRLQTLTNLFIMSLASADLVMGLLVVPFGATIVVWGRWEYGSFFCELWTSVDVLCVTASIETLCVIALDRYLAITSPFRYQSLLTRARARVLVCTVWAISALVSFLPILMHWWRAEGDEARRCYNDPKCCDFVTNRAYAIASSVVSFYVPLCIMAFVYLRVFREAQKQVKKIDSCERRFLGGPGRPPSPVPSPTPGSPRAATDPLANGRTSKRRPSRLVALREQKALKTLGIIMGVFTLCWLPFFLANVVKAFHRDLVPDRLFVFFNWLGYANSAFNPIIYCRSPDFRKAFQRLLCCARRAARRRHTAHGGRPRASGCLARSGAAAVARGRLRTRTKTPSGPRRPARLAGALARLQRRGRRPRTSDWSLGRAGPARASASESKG

Turning to `CC(C)(C)NCC(O)COCc1ccc(O)c(O)c1` (stereo not drawn) [Compound 4a], in assay [1] (anesthetized dogs, infusion rate adjusted to about 50% isoproterenol inhibition at end of 3-hour infusion), the “In Vivo Potency” value came to 112 mcg/k/m. For the same compound, the “In Vivo % I” value in assay [1] (isoproterenol inhibition (isoproterenol 0.5 μg/kg bolus), dogs, 3-hour infusion at the listed potency rate) stood at 45%. The “DOA (Time for rec. in min.) 50%” value in assay [1] (time to 50% recovery from β-blockade after termination of 3-hour infusion, dogs) was 5 min. Further, the “DOA (Time for rec. in min.) 80%” value in assay [1] (time to 80% recovery from β-blockade after termination of 3-hour infusion, dogs, estimated) was 16 min. In addition, in assay [2], the “pA2 Atria” value is on record as 6.5.
With `CC(C)(C)NCC(O)COCc1cc(O)c(O)cc1F` (stereo not drawn) [Compound 4b], the “pA2 Atria” value in assay [2] is given as 7.0.
Turning to `Cc1cc(O)c(O)cc1COCC(O)CNC(C)(C)C` (stereo not drawn) [Compound 4c], the “pA2 Atria” value in assay [2] is reported as 6.0.
Regarding `CC(C)(C)NCC(O)COCc1cc(O)cc(O)c1` (stereo not drawn) [Compound 5a], the Kb in assay [2] is 316 nM.
Take `CC(C)(C)NCC(O)COCc1cc(O)c(O)c(O)c1` (stereo not drawn) [Compound 5b]: the Kb in assay [2] was 1000 nM.
Regarding `CC(C)C(=O)NCC(C)(C)NCC(O)COCc1cc(O)cc(O)c1` (stereo not drawn) [Compound 5c], the Kb in assay [2] is 79.4 nM.
With `CC(C)(CNC(=O)c1ccccc1)NCC(O)COCc1cc(O)cc(O)c1` (stereo not drawn) [Compound 5d], the Kb in assay [2] is 79.4 nM.
As to `CC(C)(CNC(=O)C1CCCCC1)NCC(O)COCc1cc(O)cc(O)c1` (stereo not drawn) [Compound 5e], in assay [2], the Kb was 200 nM.

The values are drawn from patent US5064827A, “Polyhydroxybenzyloxpropanolamines” (Du Pont Merck Pharmaceutical Company, priority 1990, dated 1991).
